Laboratory results: patent US20150105252A1, “SUBSTITUTED PYRAZOLES AS HERBICIDES” (E I DU PONT DE NEMOURS AND COMPANY, priority 2013, published 2015)

Legend:
[1] = tested on: velvetleaf; assay: Test A preemergence; type: in vivo, Abutilon theophrasti; conditions: Preemergence, 1000 g ai/ha; 0 to 100 scale, 0 no effect, 100 complete control
In short: (§1)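 Scoring was visual, on a scale where 100 means complete control and 0 means no effect, comparing treated with untreated plants around 10 days post-application. Compounds in surfactant-containing non-phytotoxic solvent were sprayed onto soil preemergence or onto one- to two-leaf seedlings (2–10 cm) postemergence.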

[2] = tested on: wheat; assay: Test A postemergence; type: in vivo, Triticum aestivum; conditions: Postemergence, 1000 g ai/ha; visual rating after approx. 10 days, 0 to 100 scale (0 no effect, 100 complete control)
In short: as §1

[3] = tested on: crabgrass, large; assay: Test A postemergence; type: in vivo, Digitaria sanguinalis; conditions: Postemergence, 1000 g ai/ha; visual rating after approx. 10 days, 0 to 100 scale (0 no effect, 100 complete control)
In short: as §1

[4] = tested on: pigweed; assay: Test A preemergence; type: in vivo, Amaranthus retroflexus; conditions: Preemergence, 1000 g ai/ha; 0 to 100 scale, 0 no effect, 100 complete control
In short: as §1

[5] = tested on: corn; assay: Test A postemergence; type: in vivo, Zea mays; conditions: Postemergence, 1000 g ai/ha; visual rating after approx. 10 days, 0 to 100 scale (0 no effect, 100 complete control)
Excerpt: (§2) Seeds of plant species selected from barnyardgrass (Echinochloa crus-galli), kochia (Kochia scoparia), common ragweed (Ambrosia elation), Italian ryegrass (Lolium multiflorum), crabgrass, large (large crabgrass, Digitaria sanguinalis), foxtail, giant (giant foxtail, Setaria faberii), morningglory (Ipomoea spp.), pigweed (redroot pigweed, Amaranthus retroflexus), velvetleaf (Abutilon theophrasti), wheat (Triticum aestivum), and corn (Zea mays) were planted into a blend of loam soil and sand and treated preemergence with a directed soil spray using test chemicals formulated in a non-phytotoxic solvent mixture which included a surfactant.
(§3) At the same time, plants selected from these crop and weed species and also blackgrass (Alopecurus myosuroides), and galium (catchweed bedstraw, Galium aparine) were planted in pots containing the same blend of loam soil and sand and treated with postemergence applications of test chemicals formulated in the same manner. Plants ranged in height from 2 to 10 cm and were in the one- to two-leaf stage for the postemergence treatment. Treated plants and untreated controls were maintained in a greenhouse for approximately 10 days, after which time all treated plants were compared to untreated controls and visually evaluated for injury. Plant response ratings, summarized in Table A, are based on a 0 to 100 scale where 0 is no effect and 100 is complete control. A dash (-) response means no test result.

[6] = tested on: barnyardgrass; assay: Test A preemergence; type: in vivo, Echinochloa crus-galli; conditions: Preemergence, 1000 g ai/ha; 0 to 100 scale, 0 no effect, 100 complete control
In short: as §1

[7] = tested on: foxtail, giant; assay: Test A postemergence; type: in vivo, Setaria faberii; conditions: Postemergence, 1000 g ai/ha; visual rating after approx. 10 days, 0 to 100 scale (0 no effect, 100 complete control)
Excerpt: as §2, §3

[8] = tested on: corn; assay: Test A preemergence; type: in vivo, Zea mays; conditions: Preemergence, 1000 g ai/ha; 0 to 100 scale, 0 no effect, 100 complete control
Excerpt: as §2, §3

[9] = tested on: morningglory; assay: Test A preemergence; type: in vivo, Ipomoea spp.; conditions: Preemergence, 1000 g ai/ha; 0 to 100 scale, 0 no effect, 100 complete control
In short: as §1

[10] = tested on: pigweed; assay: Test A postemergence; type: in vivo, Amaranthus retroflexus; conditions: Postemergence, 1000 g ai/ha; visual rating after approx. 10 days, 0 to 100 scale (0 no effect, 100 complete control)
Excerpt: as §2, §3

[11] = tested on: wheat; assay: Test A preemergence; type: in vivo, Triticum aestivum; conditions: Preemergence, 1000 g ai/ha; 0 to 100 scale, 0 no effect, 100 complete control
Excerpt: as §2, §3

[12] = tested on: velvetleaf; assay: Test A postemergence; type: in vivo, Abutilon theophrasti; conditions: Postemergence, 1000 g ai/ha; visual rating after approx. 10 days, 0 to 100 scale (0 no effect, 100 complete control)
In short: as §1

[13] = tested on: foxtail, giant; assay: Test A preemergence; type: in vivo, Setaria faberii; conditions: Preemergence, 1000 g ai/ha; 0 to 100 scale, 0 no effect, 100 complete control
In short: as §1

[14] = tested on: crabgrass, large; assay: Test A preemergence; type: in vivo, Digitaria sanguinalis; conditions: Preemergence, 1000 g ai/ha; 0 to 100 scale, 0 no effect, 100 complete control
In short: as §1

[15] = tested on: barnyardgrass; assay: Test A postemergence; type: in vivo, Echinochloa crus-galli; conditions: Postemergence, 1000 g ai/ha; visual rating after approx. 10 days, 0 to 100 scale (0 no effect, 100 complete control)
Excerpt: as §2, §3

[16] = tested on: morningglory; assay: Test A postemergence; type: in vivo, Ipomoea spp.; conditions: Postemergence, 1000 g ai/ha; visual rating after approx. 10 days, 0 to 100 scale (0 no effect, 100 complete control)
In short: as §1

SMILES	Velvetleaf plant response rating [1]	Wheat plant response rating [2]	Crabgrass, Large plant response rating [3]	Pigweed plant response rating [4]	Corn plant response rating [5]	Barnyardgrass plant response rating [6]	Foxtail, Giant plant response rating [7]	Corn plant response rating [8]	Morningglory plant response rating [9]	Pigweed plant response rating [10]	Wheat plant response rating [11]	Velvetleaf plant response rating [12]	Foxtail, Giant plant response rating [13]	Crabgrass, Large plant response rating [14]	Barnyardgrass plant response rating [15]	Morningglory plant response rating [16]
CCNC(=O)c1cc(CC)n(Cc2cccc(C(F)(F)F)c2)n1 [Compound 17]	100	30	90	100	40	80	90	10	80	90	20	100	100	100	40	100
CCc1cc(C(=O)NCC(F)(F)F)nn1Cc1cccc(C(F)(F)F)c1 [Compound 18]	100	40	90	90	70	80	90	30	70	90	40	100	100	100	50	100
CCNC(=O)c1cc(CC)n(Cc2cccc(OC(F)(F)F)c2)n1 [Compound 19]	80	20	80	100	20	90	70	30	90	100	10	100	100	100	60	90
CSc1cc(C(=O)NC2CC2)nn1Cc1cccc(C(F)(F)F)c1 [Compound 22]	0	20	50	0	10	0	40	0	0	60	0	80	20	10	30	100
CCNC(=O)c1cc(SC)n(Cc2cccc(C(F)(F)F)c2)n1 [Compound 23]	0	0	30	0	20	0	30	0	0	40	0	30	0	0	10	100
C=CCNC(=O)c1cc(CC)n(Cc2cccc(C(F)(F)F)c2)n1 [Compound 44]	0	20	20	10	20	10	50	20	20	50	0	40	50	50	10	70
CCc1cc(C(=O)NC)nn1Cc1cccc(C(F)(F)F)c1 [Compound 45]	0	10	40	10	20	10	70	0	10	60	0	30	20	20	10	90
CCc1cc(C(=O)NCC(C)(C)C)nn1Cc1cccc(C(F)(F)F)c1 [Compound 46]	0	20	30	0	20	10	60	0	20	40	0	70	20	10	10	70
CCc1cc(C(=O)NCCOC)nn1Cc1cccc(C(F)(F)F)c1 [Compound 48]	0	0	10	0	30	10	20	0	20	10	0	10	10	10	10	50
CCc1cc(C(=O)NCC(C)C)nn1Cc1cccc(C(F)(F)F)c1 [Compound 49]	0	30	30	50	30	30	100	0	30	50	0	50	100	90	20	100
CCCCNC(=O)c1cc(CC)n(Cc2cccc(C(F)(F)F)c2)n1 [Compound 52]	10	30	30	30	30	10	30	0	30	50	0	40	70	50	20	40
